In US8962891B2, “Synthetic analogs of sphingolipids” (Hadasit Medical Research Services & Development Limited, priority 2007, dated 2015):

Key:
Pancreas tumor cells = assay: Pancreas tumor cell viability after combined treatment (MTT test); assay type: cell-based; settings: 24 h; for cell viability (MTT), combination of AD2730 and ADYZ197: 2 μM AD2730 combined with 10 μM ADYZ197
Procedure: FIG. 3A-3B: The viability of pancreatic cells using different drug combination for 24, h (MTT test)
The inventors next examined the effect of combining the compound of the invention with known chemotherapeutic drugs. Pancreas tumor cells were incubated with 1 μM taxol and 2 μM AD2750, (separately and in combination). The results are shown in the left part of the graph, in FIG. 3A, as percent of viable cells (checked by MTT). A combination of 20 μM fluorouracil and 8 μM AD2750 is shown in the right part of the graph, in FIG. 3A.
The inventors next examined the potential anti-cancerous effect of other compounds of Formula II. Therefore, pancreas tumor cells were incubated with 2 μM AD2730 and 10 μM ADYZ197, separately and in combination. The results are presented in the left part of the graph, in FIG. 3B, as percent of viable cells (checked by MTT).

Du-145 = assay: IC50 in cancer cell lines (Table 1), Du-145; assay type: cell-based; settings: Homo sapiens, Du-145 (Prostate)
LNCaP = assay: IC50 in cancer cell lines (Table 1), LNCaP; assay type: cell-based; settings: Homo sapiens, LNCaP (Prostate)
PC-3 = assay: IC50 in cancer cell lines (Table 1), PC-3; assay type: cell-based; settings: Homo sapiens, PC-3 (Prostate)
CRL-5803 = assay: IC50 in cancer cell lines (Table 1), CRL-5803; assay type: cell-based; settings: CRL-5803 (NSCLC, Lung carcinoma), incubation 24 hours, FCS yes, 0.1 × 10^6/ml plated cells
CRL-1687 = assay: IC50 in cancer cell lines (Table 1), CRL-1687; assay type: cell-based; settings: CRL-1687 (Pancreas), incubation 24 hours, FCS yes, 0.2*10^6/ml plated cells
CRL-5891 = assay: IC50 in cancer cell lines (Table 1), CRL-5891; assay type: cell-based; settings: CRL-5891 (NSCLC, Lung carcinoma), incubation 24 hours, FCS no, 0.1 × 10^6/ml plated cells
MEL624 = assay: IC50 in cancer cell lines (Table 1), MEL624; assay type: cell-based; settings: MEL624 (Melanoma), incubation 24 hours, FCS yes, 0.1 × 10^6/ml plated cells
CRL-1976 = assay: IC50 in cancer cell lines (Table 1), CRL-1976; assay type: cell-based; settings: CRL-1976 (Sarcoma), incubation 24 hours, FCS yes, 0.2*10^6/ml plated cells
CCL-224 = assay: IC50 in cancer cell lines (Table 1), CCL-224; assay type: cell-based; settings: CCL-224 (Colon), incubation 24 hours, FCS no, 0.2*10^6/ml plated cells
MDA-MB-435 cells = assay: MDA-MB-435 survival experiment in nude mice; assay type: in vivo; settings: CD1-nude mice injected iv with 3×10^6 MDA-MB-435 cells; 20 mg/kg in the drinking water beginning day 1; to day 100
Procedure: CD1-nude mice were injected iv with 3×10^6 MDA-MB-435 cells, which are usually considered as metastatic human breast cancer, but recently are also considered as model cells for melanoma. The mice were treated with AD2750, 20 mg/kg in the drinking water beginning day 1. On day 100, the remaining mice were sacrificed, and the pathology was determined.

[1] = system: pancreas tumor cells (CRL-1687); assay: Pancreas tumor (CRL-1687) growth in CD1-nude mice; assay type: in vivo; settings: 5×10^6 CRL-1687 cells id, 30 mg/kg ip in 10% CE beginning day 1, up to 35 days
Procedure: In order to examine the applicability of the compounds of the invention as an anti-cancerous drug, the inventors next examined the effect of i.p. administration of AD2750, on pancreas tumor. Therefore, CD1-nude mice were injected id with 5×10^6 pancreas tumor cells (CRL-1687). The mice were treated ip, with AD2750, beginning day 1, 30, mg/kg in 0.2 ml 10% CE, for up to 35 days. Tumor size was measured and calculated every 5-7 days beginning day 8.

BxPC-3 tumor = assay: BxPC-3 human pancreatic tumor xenograft efficacy study; assay type: in vivo; settings: BxPC-3 s.c. in athymic NCr-nu/nu mice
From the text: BxPC-3 Human Pancreatic Tumor Model
Thirty-to-forty mg tumor fragments of BxPC-3 tumor from a continuous in vivo passage were implanted subcutaneously (sc) into athymic NCr-nu/nu mice using 12-gauge trocar needles.
Animals were purchased from NCI-approved animal facilities (4-5 weeks old) and acclimated in the laboratories one week prior to experimentation. The animals were housed in microisolator cages in a 12-hour light/dark cycle. Animals received filter-sterilized water and sterile rodent food ad libitum. Cages were changed a minimum of twice weekly. The animals were weighed twice weekly and observed daily (for about sixty days of experiment) for clinical signs.
Tumor Measurements and Body Weights: Tumors measurements and animal body weights are recorded twice weekly. Tumor volume was determined by caliper measurements (mm) and using the formula for an ellipsoid sphere: Length×Width^2/2=Volume (mm^3)
This commonly used formula is also used to calculate tumor weight, assuming unit density (1 mm^3=1 mg).
Parameters Evaluated: For sc tumors trials, a T-C value based on 1, 2, 3 or 4 tumor volume doubling time (days), as appropriate for the particular trial, was made. This evaluation is based on tumor size of the control animals at the end of the treatment period. A T/C (%) or T/C (%) value was determined. […]

HL-60 = assay: IC50 in cancer cell lines (Table 1), HL-60; assay type: cell-based; settings: Homo sapiens; HL-60 (Promyelocytic leukemia), incubation 24 hours, FCS no, 0.1 × 10^6/ml plated cells
[2] = incubation 24 hours, FCS no, 0.1 × 10^6/ml plated cells
[3] = incubation 72 hours, FCS yes, 0.05 × 10^6/ml plated cells
[4] = incubation 24 hours, FCS yes, 0.1 × 10^6/ml plated cells
[5] = incubation 48 hours, FCS yes, 0.1 × 10^6/ml plated cells

SMILES: CCCCNC(CO)C(O)c1ccccc1 (centres unmarked) [AD2730, 2-(butylamino)-1-phenylpropane-1,3-diol]
- cell viability (MTT), combination of AD2730 and ADYZ197 (Pancreas tumor cells): significant synergistic effect on reduction of cell viability

SMILES: CCCCCCCCCCCCCCNC(CO)CO [AD2750, 2-(tetradecylamino)propane-1,3-diol]
- IC50 (Du-145; [2]): 3.3 µM
- IC50 (Du-145; [3]): 7.5 µM
- IC50 (LNCaP; LNCaP, 24 h, incubation 24 hours, FCS no, 0.1 × 10^6/ml plated cells): 4.9 µM
- IC50 (LNCaP; LNCaP, 24 h, incubation 24 hours, FCS yes, 0.1 × 10^6/ml plated cells): 15.2 µM
- IC50 (LNCaP; LNCaP, 48 h, incubation 48 hours, FCS yes, 0.1 × 10^6/ml plated cells): 8.7 µM
- IC50 (LNCaP; LNCaP, 72 h, incubation 72 hours, FCS yes, 0.05 × 10^6/ml plated cells): 3.9 µM
- IC50 (PC-3; [4]): 12.2 µM
- IC50 (PC-3; [3]): 6.8 µM
- IC50 (CRL-5803): 11 µM
- IC50 (CRL-1687): 15 µM
- IC50 (CRL-5891): 8 µM
- IC50 (MEL624): 9 µM
- IC50 (CRL-1976): 5 µM
- IC50 (CCL-224): 13 µM
- survival of treated animals (MDA-MB-435 cells): increased survival
- tumor incidence (MDA-MB-435 cells): significantly reduced tumor incidence
- reduction in tumor volume [1]: about 5 folds
- tumor cell viability (MTT), combination with Taxol (Pancreas tumor cells; 2 μM AD2750 combined with 1 μM taxol): markedly reduced tumor cell viability
- tumor cell viability (MTT), combination with fluorouracil (Pancreas tumor cells; 8 μM AD2750 combined with 20 μM fluorouracil): markedly reduced tumor cell viability
- tumor volume, monotherapy (BxPC-3 tumor; 20 or 30 mg/kg i.p. daily for 28 days, vs vehicle): clearly reduced tumor volume in a dose dependent manner
- tumor volume, combination with Camptosar (BxPC-3 tumor; AD2750 20 or 30 mg/kg with Camptosar 60 or 30 mg/kg i.p. for 28 days): significant reduction in tumor volume

SMILES: CCCCCCCCCCNC(CO)(CO)CO [ADYZ195, 2-(decylamino)-2-(hydroxymethyl)propane-1,3-diol]
- IC50 (Du-145; [2]): > 50 µM
- IC50 (PC-3; [2]): > 50 µM

SMILES: CCCCCCCCCCCCCCCCCCNC(CO)(CO)CO [ADYZ197, 2-(octadecylamino)-2-(hydroxymethyl)propane-1,3-diol]
- IC50 (Du-145; [4]): 7.5 µM
- IC50 (LNCaP; [2]): 42.9 µM
- IC50 (LNCaP; [5]): 23.9 µM
- IC50 (LNCaP; incubation 72 hours, FCS yes, 0.5 × 10^6/ml plated cells): 3 µM
- IC50 (PC-3; [5]): 8.2 µM
- IC50 (PC-3; [3]): 4.4 µM
- IC50 (CRL-5803): 20 µM
- IC50 (CRL-1687): 22 µM
- IC50 (CRL-5891): 10 µM
- IC50 (MEL624): 3 µM
- IC50 (CRL-1976): 20 µM
- IC50 (HL-60): 15 µM
- cell viability (MTT), combination of AD2730 and ADYZ197 (Pancreas tumor cells): significant synergistic effect on reduction of cell viability
- tumor cell viability (MTT), combination with fluorouracil (Pancreas tumor cells; 10 μM ADYZ197 combined with 20 μM fluorouracil): significant reduction of tumor cell viability
